These results are taken from US10214509B2, “Amino-substituted heterocyclic derivatives as sodium channel inhibitors” (ALMIRALL, S.A., priority 2015, dated 2019).

For data set [1], the target named is voltage-gated sodium channel Nav1.7 (Homo sapiens (Human), UniProt Q15858). Kind of data set: Nav1.7 screening assay, IonWorks Quattro automated patch-clamp electrophysiology. Particulars: stable cell line expressing Nav1.7; holding potential −100 mV; compound incubation 5 minutes; IC50 fitted to percent block; read-out: Nav 1.7 IC50. Format: cell-based. The procedure:
(§1) Assay Procedure Nav1.7 and Nav1.5 Screening Assay
(§2) Stable cell lines expressing the full-length protein of the voltage-gated sodium channels Nav1.7 or Nav1.5, with or without one beta-1, beta-2, beta-3, or beta-4 subunit, are created by transfected CHO cells or HEK293 cells, or any other suitable cell line, with a vector construct containing the complete open reading frame under a suitable promoter, as well known in the art.
(§3) Electrophysiological studies are performed with an IonWorks Quattro (Molecular Devices Corp.) automated patch-clamp electrophysiology platform as described by (Schroeder K et al. Journal of Biomolecular Screening 2003, 8 (1), 50-64). Buffers for the experiments have the following composition (mM): Internal solution; K-gluconate 100, KCl 40, MgCl2 3.2, HEPES 5, EGTA 3, pH 7.3. To this amphotericin B is added to final concentration of 0.1 mg/ml to generate access solution. External solution; Dulbecco's Phosphate buffered saline (D-PBS) NaCl 137.93, KCl 2.67, KH2PO4 1.47, Na2HPO4 8.06, CaCl2 0.90, MgCl2 0.49. Prior to the experiment the cells expressing the voltage-gated ion channel of interest are detached from the tissue culture flasks, centrifuged and resuspended in D-PBS. Compounds are prepared and serially diluted in DMSO and finally diluted 1:100 in D-PBS. Cells are exposed to compounds through the pipetting system integrated into the platform and the voltage-gated ion channel of interest is activated with specific voltage stimulation protocols. The following voltage stimulation protocol is used for testing compounds against the voltage-gated sodium channel Nav1.7; from a holding potential of −100 mV a train of eight 60 ms depolarising steps to −20 mV at a frequency of 14 Hz are employed followed by a further step to −20 mV for 2000 ms. After which the voltage is returned to −100 mV for 10 ms before another voltage step to −20 mV for 60 ms is applied. The following voltage stimulation protocol is used for testing compounds against the voltage-gated sodium channel Nav1.5; from a holding potential of −120 mV a train of twenty-six 120 ms depolarising steps to −20 mV at a frequency of 5 Hz are employed. Recordings are made before and after compound addition with the compound incubation time being 5 minutes.
(§4) Percent block was calculated for each concentration in duplicate for peak 1 and peak 10 and peak 1 and 25 for Nav 1.7 and Nav 1.5 respectively in order to assess compound activity at close and inactivated states and IC50 curves were fitted to percent block as a function of concentration.
(The patch-clamp technique gives a direct electrical read-out from membranes.)

Data set [2] concerns the target voltage-gated sodium channel Nav1.5 (Homo sapiens (Human), UniProt Q14524). Kind of data set: Nav1.5 screening assay, IonWorks Quattro automated patch-clamp electrophysiology. It is filed as cell-based. Conditions: stable cell line expressing Nav1.5; holding potential −120 mV; compound incubation 5 minutes; IC50 fitted to percent block; read-out: Nav 1.5 IC50. The procedure: as §1, §2, §3, §4

voltage-gated sodium channel Nav1.5, sequence (Q14524 whole entry): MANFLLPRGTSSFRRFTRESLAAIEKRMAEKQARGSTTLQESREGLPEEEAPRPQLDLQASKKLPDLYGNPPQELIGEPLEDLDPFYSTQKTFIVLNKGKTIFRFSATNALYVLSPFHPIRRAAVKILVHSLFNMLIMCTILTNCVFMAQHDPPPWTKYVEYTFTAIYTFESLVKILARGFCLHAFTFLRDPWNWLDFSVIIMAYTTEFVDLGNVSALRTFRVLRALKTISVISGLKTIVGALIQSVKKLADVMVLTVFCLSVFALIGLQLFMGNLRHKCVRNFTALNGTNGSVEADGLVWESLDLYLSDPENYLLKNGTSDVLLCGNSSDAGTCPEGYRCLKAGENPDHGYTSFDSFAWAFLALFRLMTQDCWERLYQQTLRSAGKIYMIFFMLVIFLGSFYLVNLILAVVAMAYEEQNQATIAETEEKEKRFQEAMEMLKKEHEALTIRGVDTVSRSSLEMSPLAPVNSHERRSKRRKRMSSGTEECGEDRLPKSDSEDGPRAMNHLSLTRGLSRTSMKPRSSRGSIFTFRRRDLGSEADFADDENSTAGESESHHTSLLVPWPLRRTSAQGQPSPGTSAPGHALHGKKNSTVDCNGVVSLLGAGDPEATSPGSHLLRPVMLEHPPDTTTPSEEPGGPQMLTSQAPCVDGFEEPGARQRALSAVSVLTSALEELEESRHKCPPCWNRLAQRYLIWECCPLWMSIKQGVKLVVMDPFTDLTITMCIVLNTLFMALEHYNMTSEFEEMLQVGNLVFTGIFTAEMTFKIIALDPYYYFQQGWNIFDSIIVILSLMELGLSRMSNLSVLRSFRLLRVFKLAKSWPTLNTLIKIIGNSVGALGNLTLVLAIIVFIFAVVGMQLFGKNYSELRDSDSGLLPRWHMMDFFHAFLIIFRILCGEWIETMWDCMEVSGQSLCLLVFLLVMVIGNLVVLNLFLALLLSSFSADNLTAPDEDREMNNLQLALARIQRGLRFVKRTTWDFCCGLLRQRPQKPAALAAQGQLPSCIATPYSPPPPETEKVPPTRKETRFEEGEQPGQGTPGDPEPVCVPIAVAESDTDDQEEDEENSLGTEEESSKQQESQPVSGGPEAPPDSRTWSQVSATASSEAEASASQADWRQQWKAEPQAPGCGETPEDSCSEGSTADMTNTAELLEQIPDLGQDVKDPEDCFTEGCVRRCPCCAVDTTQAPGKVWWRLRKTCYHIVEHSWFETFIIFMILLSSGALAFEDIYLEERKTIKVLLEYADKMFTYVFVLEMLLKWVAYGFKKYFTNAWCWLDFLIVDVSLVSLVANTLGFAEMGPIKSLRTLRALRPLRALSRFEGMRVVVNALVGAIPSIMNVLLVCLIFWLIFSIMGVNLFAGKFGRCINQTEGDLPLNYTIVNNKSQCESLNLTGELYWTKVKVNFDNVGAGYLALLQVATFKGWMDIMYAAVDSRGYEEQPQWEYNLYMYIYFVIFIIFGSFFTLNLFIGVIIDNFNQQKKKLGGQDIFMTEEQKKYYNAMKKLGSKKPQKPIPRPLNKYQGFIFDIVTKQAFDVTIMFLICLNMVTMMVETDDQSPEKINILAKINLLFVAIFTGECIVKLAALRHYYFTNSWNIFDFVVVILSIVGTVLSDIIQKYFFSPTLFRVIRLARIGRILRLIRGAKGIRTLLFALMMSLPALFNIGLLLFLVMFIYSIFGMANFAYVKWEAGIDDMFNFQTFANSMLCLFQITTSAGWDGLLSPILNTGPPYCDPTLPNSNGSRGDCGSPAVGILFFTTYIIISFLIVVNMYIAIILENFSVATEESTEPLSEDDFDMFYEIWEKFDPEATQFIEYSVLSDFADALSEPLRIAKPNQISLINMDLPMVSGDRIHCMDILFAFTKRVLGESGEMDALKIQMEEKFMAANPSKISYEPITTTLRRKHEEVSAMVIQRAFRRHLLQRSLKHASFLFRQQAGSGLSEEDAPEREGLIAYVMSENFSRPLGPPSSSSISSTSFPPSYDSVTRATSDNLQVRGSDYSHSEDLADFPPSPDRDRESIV
voltage-gated sodium channel Nav1.7, sequence (Q15858 whole entry): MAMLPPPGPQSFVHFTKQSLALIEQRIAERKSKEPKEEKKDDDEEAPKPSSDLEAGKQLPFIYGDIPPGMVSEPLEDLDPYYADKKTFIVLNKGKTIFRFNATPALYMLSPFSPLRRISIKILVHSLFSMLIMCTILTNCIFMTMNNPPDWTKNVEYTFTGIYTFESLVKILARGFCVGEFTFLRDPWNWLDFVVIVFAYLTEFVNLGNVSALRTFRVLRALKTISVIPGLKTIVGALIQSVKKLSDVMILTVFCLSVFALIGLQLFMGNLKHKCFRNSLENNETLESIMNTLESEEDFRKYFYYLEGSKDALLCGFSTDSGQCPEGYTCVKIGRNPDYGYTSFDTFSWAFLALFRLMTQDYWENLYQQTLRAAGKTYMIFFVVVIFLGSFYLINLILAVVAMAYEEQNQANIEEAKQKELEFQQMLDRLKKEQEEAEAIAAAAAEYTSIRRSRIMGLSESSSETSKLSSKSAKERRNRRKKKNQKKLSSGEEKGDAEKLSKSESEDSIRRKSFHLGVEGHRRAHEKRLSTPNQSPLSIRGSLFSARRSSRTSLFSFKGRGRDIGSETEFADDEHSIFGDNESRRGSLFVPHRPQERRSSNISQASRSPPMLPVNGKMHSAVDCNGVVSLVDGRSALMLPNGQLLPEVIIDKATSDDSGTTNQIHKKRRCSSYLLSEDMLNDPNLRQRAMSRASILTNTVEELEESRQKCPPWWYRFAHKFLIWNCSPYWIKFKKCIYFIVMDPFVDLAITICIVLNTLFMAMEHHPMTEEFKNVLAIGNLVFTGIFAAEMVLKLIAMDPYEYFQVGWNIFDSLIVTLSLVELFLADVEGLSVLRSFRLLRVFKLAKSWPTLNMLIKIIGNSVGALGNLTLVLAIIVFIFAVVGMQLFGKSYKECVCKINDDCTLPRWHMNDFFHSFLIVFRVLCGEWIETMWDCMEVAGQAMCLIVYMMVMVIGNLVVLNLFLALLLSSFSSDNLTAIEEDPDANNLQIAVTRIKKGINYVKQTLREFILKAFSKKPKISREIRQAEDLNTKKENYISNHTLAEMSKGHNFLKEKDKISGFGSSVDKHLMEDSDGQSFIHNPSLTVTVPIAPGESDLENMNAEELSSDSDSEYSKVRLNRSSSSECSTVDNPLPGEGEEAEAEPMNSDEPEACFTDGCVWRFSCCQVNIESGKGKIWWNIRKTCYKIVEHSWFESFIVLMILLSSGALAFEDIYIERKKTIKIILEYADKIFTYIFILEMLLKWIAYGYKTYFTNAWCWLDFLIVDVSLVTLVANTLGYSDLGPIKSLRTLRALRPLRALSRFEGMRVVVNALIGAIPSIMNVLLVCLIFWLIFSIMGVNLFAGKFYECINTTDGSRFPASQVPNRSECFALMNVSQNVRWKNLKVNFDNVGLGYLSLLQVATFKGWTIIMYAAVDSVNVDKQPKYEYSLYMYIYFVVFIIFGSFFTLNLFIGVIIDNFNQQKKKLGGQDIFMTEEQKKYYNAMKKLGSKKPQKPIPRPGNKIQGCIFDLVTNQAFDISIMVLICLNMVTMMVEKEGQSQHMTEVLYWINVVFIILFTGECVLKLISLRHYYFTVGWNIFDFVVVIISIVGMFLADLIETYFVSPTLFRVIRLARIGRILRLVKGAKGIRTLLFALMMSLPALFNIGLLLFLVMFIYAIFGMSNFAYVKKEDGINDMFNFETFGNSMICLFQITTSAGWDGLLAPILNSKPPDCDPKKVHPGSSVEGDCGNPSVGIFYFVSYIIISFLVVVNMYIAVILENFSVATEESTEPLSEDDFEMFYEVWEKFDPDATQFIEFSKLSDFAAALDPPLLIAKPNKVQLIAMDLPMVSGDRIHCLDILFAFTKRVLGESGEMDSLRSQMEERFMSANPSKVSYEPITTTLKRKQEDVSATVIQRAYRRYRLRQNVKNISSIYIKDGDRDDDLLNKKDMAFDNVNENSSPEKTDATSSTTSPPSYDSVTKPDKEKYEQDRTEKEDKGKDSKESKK

For orientation: IC50 means the point on the concentration scale where inhibition reaches its midpoint. With “5-Amino-1-(2-(2-methoxyethoxy)phenyl)-3-methyl-N-(2-methyl-4-(trifluoromethyl)phenyl)-1H-pyrazole-4-carboxamide [Example 115]”, the half-inhibitory concentration (IC50) in data set [1] is 700 nM; in data set [2], more than 33000 nM.

In the case of `COc1ccccc1-n1ncc(C(=O)Nc2ccc(Cl)cc2)c1N` [Example 1, 5-Amino-N-(4-chlorophenyl)-1-(2-methoxyphenyl)-1H-pyrazole-4-carboxamide], the IC50 in data set [1] came out at 700 nM; in data set [2], 21000 nM.

Take `Cc1ccccc1-n1ncc(C(=O)Nc2ccc(Cl)cc2F)c1N` [Example 7, 5-Amino-N-(4-chloro-2-fluoro-phenyl)-1-(o-tolyl)-1H-pyrazole-4-carboxamide]: the 50% inhibitory concentration (IC50) in data set [1] was 300 nM; in data set [2], more than 33000 nM.

As to `COCCOc1ccccc1-n1nc(C)c(C(=O)Nc2ccc(C(F)(F)F)cc2F)c1N` [Example 38, 5-Amino-N-(2-fluoro-4-(trifluoromethyl)phenyl)-1-(2-(2-methoxyethoxy)phenyl)-3-methyl-1H-pyrazole-4-carboxamide], the IC50 is 700 nM in data set [1] and more than 33000 nM in data set [2]. With `Cc1c(F)cccc1-n1ncc(C(=O)Nc2ccc(OC(F)(F)F)cn2)c1N` [Example 55, 5-Amino-1-(3-fluoro-2-methylphenyl)-N-(5-(trifluoromethoxy)pyridin-2-yl)-1H-pyrazole-4-carboxamide], the values for the 50% inhibitory concentration (IC50) in data set [1] and in data set [2] were 500 nM and more than 33000 nM, respectively. For `Cc1c(F)cccc1-n1ncc(C(=O)N2CCc3cc(Cl)ccc32)c1N` [Example 57, (5-Amino-1-(3-fluoro-2-methylphenyl)-1H-pyrazol-4-yl)(5-chloroindolin-1-yl)methanone], the IC50 is 800 nM in data set [1] and more than 33000 nM in data set [2].

As to `COc1ccccc1-n1ncc(C(=O)N2CCc3cc(Cl)ccc32)c1N` [Example 61, (5-Amino-1-(2-methoxyphenyl)-1H-pyrazol-4-yl)(5-chloroindolin-1-yl)methanone], the 50% inhibitory concentration (IC50) was found to be 900 nM in data set [1] and 28000 nM in data set [2]. With `Cc1c(F)cccc1-n1nnc(C(=O)Nc2ccc(Cl)cn2)c1N` [Example 75, 5-Amino-N-(5-chloropyridin-2-yl)-1-(3-fluoro-2-methylphenyl)-1H-1,2,3-triazole-4-carboxamide], the IC50 in data set [1] was 800 nM; in data set [2], more than 33000 nM. As to `CCc1nn(-c2ccccc2OC)c(N)c1C(=O)Nc1ccc(C(F)(F)F)cn1` [Example 114, 5-Amino-3-ethyl-1-(2-methoxyphenyl)-N-(5-(trifluoromethyl)pyridin-2-yl)-1H-pyrazole-4-carboxamide], the values for the IC50 in data set [1] and in data set [2] were 400 nM and more than 33000 nM, respectively.

Turning to `Cc1nn(-c2cccc(F)c2C)c(N)c1C(=O)Nc1ccc(Cl)cn1` [Example 137, 5-Amino-N-(5-chloro-2-pyridyl)-1-(3-fluoro-2-methylphenyl)-3-methyl-pyrazole-4-carboxamide], the IC50 is 600 nM in data set [1] and more than 33000 nM in data set [2]. For the compound `CCc1ccccc1-n1ncc(C(=O)Nc2ccc(OCC(F)(F)F)cn2)c1N` [Example 140, 5-Amino-1-(2-ethylphenyl)-N-(5-(2,2,2-trifluoroethoxy)pyridin-2-yl)-1H-pyrazole-4-carboxamide], the half-maximal inhibitory concentration (IC50) is 1000 nM in data set [1] and more than 33000 nM in data set [2]. Regarding `CCc1nn(-c2cccc(F)c2C)c(N)c1C(=O)Nc1ccc(C(F)(F)F)cn1` [Example 143, 5-Amino-3-ethyl-1-(3-fluoro-2-methylphenyl)-N-[5-trifluoromethyl-2-pyridyl]pyrazole-4-carboxamide], the IC50 worked out at 300 nM in data set [1] and 10000 nM in data set [2]. As for `Cc1nn(-c2ccccc2F)c(N)c1C(=O)Nc1ccc(C(F)(F)F)cn1` [Example 153, 5-Amino-1-(2-fluorophenyl)-3-methyl-N-(5-(trifluoromethyl)pyridin-2-yl)-1H-pyrazole-4-carboxamide], the IC50 in data set [1] is 400 nM; in data set [2], more than 33000 nM. Taken in the same sequence, the figures for `Nc1c(C(=O)Nc2ccc(Cl)cn2)cnn1-c1ccccc1-c1cccnc1` [Example 196, 5-Amino-N-(5-chloropyridin-2-yl)-1-(2-(pyridin-3-yl)phenyl)-1H-pyrazole-4-carboxamide] were 700 nM and 17000 nM. Consider `COc1cc(-c2ccccc2-n2ncc(C(=O)Nc3ccc(Cl)cn3)c2N)ccn1` [Example 197, 5-Amino-N-(5-chloropyridin-2-yl)-1-(2-(2-methoxypyridin-4-yl)phenyl)-1H-pyrazole-4-carboxamide], for which the 50% inhibitory concentration (IC50) is 1000 nM in data set [1] and more than 33000 nM in data set [2]. For `Nc1c(C(=O)Nc2ccc(C(F)(F)F)cn2)cnn1-c1ccccc1O` [Example 208, 5-Amino-1-(2-hydroxyphenyl)-N-(5-(trifluoromethyl)pyridin-2-yl)-1H-pyrazole-4-carboxamide], in that order: 300 nM and more than 33000 nM.

As for `Cc1c(F)cccc1-n1cnc(C(=O)Nc2ccc(C(F)(F)F)cn2)c1N` [Example 251, 5-Amino-1-(3-fluoro-2-methylphenyl)-N-(5-(trifluoromethyl)pyridin-2-yl)-1H-imidazole-4-carboxamide], the half-inhibitory concentration (IC50) in data set [1] is 200 nM. Consider `COc1ccccc1-n1cnc(C(=O)Nc2ccc(Cl)cc2)c1N` [Example 254, 5-Amino-N-(4-chlorophenyl)-1-(2-methoxyphenyl)-1H-imidazole-4-carboxamide], for which the IC50 is 1900 nM in data set [1] and more than 33000 nM in data set [2].
